From US9682960B2 (priority 2013, dated 2017)
Values joined by “and” are separate entries in the source; they are usually repeats but may differ in a detail not shown here. Identical values can stand only once. Like-named read-outs stand apart in the source and are kept apart here.

What was measured:
[1] = test system: PSA levels in human prostatic carcinoma LNCaP cells; test: Prostate specific antigen (PSA) in LNCaP cells with or without R1881; type: cell-based
Method: LNCaP cells were cultured as previously described (Qi et al. 2001). In brief, the LNCaP cells were cultured for 6 days in 1.0 ml RPMI 1640 supplemented with hormone-depleted 0.25% FCS before each experiment. At the start of the experiment, half of the medium (0.5 ml) was replaced with 0.5 ml of identical medium containing the appropriate concentrations of tested compounds, in the presence or absence of 1.0 nM of R1881. After 72 h of incubation of LNCaP cells with compounds, 0.5 ml of culture medium was removed for PSA determination. PSA levels were measured using the PSA [^125I] IRMA KIT (REF: RK-10CT) from Izotop (Institute of Isotopes Ltd, Budapest, Hungary).

Human Androgen Receptor = Human Androgen Receptor (Homo sapiens (Human), UniProt P10275); test: Androgen receptor assay: [3H]R1881 displacement, cytosol of HEK-293 cells transfected with hAR (hydroxylapatite assay); type: binding; conditions: for Human Androgen Receptor Binding RBA (%) R1881 = 100: relative binding affinity; for affinity for the androgen receptor (in words): SAR discussion
[2] = test system: Shionogi mouse mammary carcinoma cells; test: In vitro androgenic/antiandrogenic activity: proliferation of Shionogi cells with or without DHT; type: cell-based
[3] = test system: castrated (CX) immature male rats; test: Systemic androgenic (agonistic) activity in orchidectomized (CX) immature male rats; type: in vivo, rat; conditions: 0.1 mg/rat/po, 7 days; for CX Agonistic activity % Stimulation Bulbo: bulbocavernosus muscles weight; for CX Agonistic activity % Stimulation SV: seminal vesicles weight; for CX Agonistic activity % Stimulation Prostate: ventral prostate weight
Androgen Receptor = test: Overall classification (antiandrogen / SARM) in the models studied
[4] = Mus musculus, read-out: Shionogi Antiandrogenic Activity IC50, DHT (0.3 nM)-stimulated cell number

Chain of Human Androgen Receptor (P10275 whole entry): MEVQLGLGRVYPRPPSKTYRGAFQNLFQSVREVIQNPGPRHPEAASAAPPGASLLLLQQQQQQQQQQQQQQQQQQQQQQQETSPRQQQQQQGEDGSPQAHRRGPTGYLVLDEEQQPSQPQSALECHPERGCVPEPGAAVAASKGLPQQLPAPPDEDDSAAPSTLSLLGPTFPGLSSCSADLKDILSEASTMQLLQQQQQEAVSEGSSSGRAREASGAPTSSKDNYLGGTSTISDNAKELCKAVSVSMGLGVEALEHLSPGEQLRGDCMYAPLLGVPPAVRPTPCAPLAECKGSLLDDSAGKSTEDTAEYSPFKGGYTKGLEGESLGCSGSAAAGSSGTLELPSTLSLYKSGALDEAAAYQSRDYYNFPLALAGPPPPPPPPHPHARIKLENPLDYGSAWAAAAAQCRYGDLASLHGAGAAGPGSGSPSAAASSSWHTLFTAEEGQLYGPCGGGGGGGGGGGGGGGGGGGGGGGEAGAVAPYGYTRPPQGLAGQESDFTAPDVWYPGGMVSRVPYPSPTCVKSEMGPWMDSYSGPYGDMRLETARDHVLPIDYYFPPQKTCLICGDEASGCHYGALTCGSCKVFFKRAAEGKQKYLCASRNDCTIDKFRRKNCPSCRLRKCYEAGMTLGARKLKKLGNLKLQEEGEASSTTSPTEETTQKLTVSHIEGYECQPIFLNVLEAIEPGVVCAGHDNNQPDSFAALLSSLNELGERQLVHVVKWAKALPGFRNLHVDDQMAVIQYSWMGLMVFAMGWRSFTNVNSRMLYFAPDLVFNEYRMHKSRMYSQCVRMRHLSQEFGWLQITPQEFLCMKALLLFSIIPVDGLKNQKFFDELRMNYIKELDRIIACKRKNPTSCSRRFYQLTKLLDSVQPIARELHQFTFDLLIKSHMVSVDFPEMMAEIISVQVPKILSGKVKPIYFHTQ

Compound | LNCaP Cells Antiandrogenic activity (PSA) % inhibition at 10^−7M ([1]; R1881-stimulated, 10^−7M of compound) | Human Androgen Receptor Binding RBA (%) R1881 = 100 (Human Androgen Receptor; transfected cells) | IC50 ([2]; DHT (0.3 nM)-stimulated cell number, read-out: Shionogi Antiandrogenic Activity IC50) | CX Agonistic activity % Stimulation Bulbo [3] | CX Agonistic activity % Stimulation SV [3] | CX Agonistic activity % Stimulation Prostate [3] | affinity for the androgen receptor (in words) (Human Androgen Receptor) | Human Androgen Receptor Binding RBA (%) R1881 = 100 (Human Androgen Receptor; […]) | classification as antiandrogen or SARM (in words) (Androgen Receptor) | IC50 [2, 4] | inhibition at 0.1 µM ([1]; Homo sapiens, LNCaP, read-out: LNCaP Cells Antiandrogenic activity (PSA) % inhibition at 10^−7M, R1881-stimulated, 10^−7M of compound) | times more binding to the human androgen receptor than the corresponding hydantoin (Human Androgen Receptor; thiohydantoin versus hydantoin (EM-9052 vs EM-9150; EM-7105 vs EM-7333)) | times more potent than OH-flutamide on the human AR (RBA ratio) (Human Androgen Receptor; versus hydroxyflutamide) | % of stimulation at 10^−7M on basal Shionogi cells ([2]; basal (no DHT), 10^−7M)
CCNCc1ccc(OCCCN2C(=S)N(c3ccc(C#N)c(C(F)(F)F)c3)C(=O)C2(C)C)cc1 [EM-7148, reference compound] | 33% | 11% and 11 ± 1% | 9.2 nM | – | – | – | – | – | – | – | – | – | – | –
Cc1c(N2C(=O)C(C)(C)N(CCCOc3ccc(-c4ccncc4)cc3)C2=S)ccc(C#N)c1C(F)(F)F [EM-8691] | – | – | – | 163% | 24% | 39% | high affinity | 525 ± 362 (n = 3) % | potent SARM | > 100 nM | – | – | – | –
Cc1c(N2C(=O)C(C)(C)N(CCCOc3ccc(-c4ccncc4)c(C(F)(F)F)c3)C2=S)ccc(C#N)c1C(F)(F)F [EM-8821] | – | 28.3% | – | 74% | 22% | 22% | decreased affinity | – | weaker SARM | 11.5 nM | – | – | – | –
CC1(C)C(=O)N(c2ccc(C#N)c(Cl)c2)C(=S)N1CCCOc1ccc(-c2ccncc2)cc1Cl [EM-9052] | – | – | – | – | – | – | – | – | – | 61 nM | 26% | 27 times | – | –
CC1(C)C(=O)N(c2ccc(C#N)c(Cl)c2)C(=O)N1CCCOc1ccc(-c2ccncc2)cc1 [EM-9116] | – | – | – | – | – | – | higher affinity | 9.2 ± 1.9 (n = 5) % | better antiandrogens | 17 ± 5 nM | – | – | – | –
Cc1c(N2C(=O)N(CCCOc3ccc(-c4cc[n+]([O-])cc4)cc3Cl)C(C)(C)C2=O)ccc(C#N)c1Cl [EM-9252] | – | – | – | 105 ± 9 (n = 2) % | 29 ± 5 (n = 2) % | 46 ± 5 (n = 2) % | – | 96.3% | selective androgen receptor modulators | > 100 nM | – | – | – | –
Cc1c(N2C(=O)N(CCCOc3ccc(-c4cc[n+]([O-])cc4)c(Cl)c3)C(C)(C)C2=O)ccc(C#N)c1Cl [EM-9291] | – | 64.2% | – | 91 ± 2 (n = 2) % | 21 ± 7 (n = 2) % | 47 ± 7 (n = 2) % | – | – | – | 75.5 nM | – | – | – | –
Cc1c(N2C(=O)N(CCCOc3ccc(-c4ccncc4)cc3F)C(C)(C)C2=O)ccc(C#N)c1Cl [EM-9297] | – | – | – | 120% | 26% | 31% | – | 101% | – | 72.8 nM | – | – | – | –
Cc1c(N2C(=O)N(CCCOc3ccc(-c4ccncc4)cc3)C(C)(C)C2=O)ccc(C#N)c1Cl [EM-9300] | – | – | – | 127 ± 8 (n = 2) % | 25 ± 2 (n = 2) % | 40 ± 3 (n = 2) % | – | 77.8% | – | 62.2 nM | – | – | – | –
Cc1c(N2C(=O)N(CCCOc3ccc(-c4cc[n+]([O-])cc4)cc3F)C(C)(C)C2=O)ccc(C#N)c1Cl [EM-9301] | – | – | – | 104 ± 17 (n = 2) % | 29 ± 2 (n = 2) % | 42 ± 1 (n = 2) % | – | 34.6% | – | 55.7 nM | – | – | – | –
Cc1c(N2C(=O)N(CCCOc3ccc4ccc[n+]([O-])c4c3)C(C)(C)C2=O)ccc(C#N)c1Cl [EM-9302] | – | – | – | 57% | 8% | 29% | – | 1.3% | – | 110 nM | – | – | – | –
Cc1c(N2C(=O)N(CCCOc3ccc(-c4cc[n+]([O-])cc4)cc3)C(C)(C)C2=O)ccc(C#N)c1Cl [EM-9305] | – | – | – | 110 ± 5 (n = 2) % | 28 ± 3 (n = 2) % | 34 ± 5 (n = 2) % | – | 26.2% | – | 32.3 nM | – | – | – | –
Cc1c(N2C(=O)N(CCCOc3ccc(-c4ccncc4)cc3C(F)(F)F)C(C)(C)C2=O)ccc(C#N)c1Cl [EM-9309] | – | – | – | 107±9% and 107 ± 9 (n = 2) % | 24 ± 2 (n = 2) % | 36 ± 1 (n = 2) % | – | 157% | – | 66.9 nM | – | – | 748 times | 13%
Cc1c(N2C(=O)N(CCCOc3ccc(-c4ccncc4Cl)cc3)C(C)(C)C2=O)ccc(C#N)c1Cl [EM-9310] | – | – | – | 109 ± 9 (n = 2) % | 18 ± 2 (n = 2) % | 44 ± 7 (n = 2) % | – | 92.8% | – | 60 nM | – | – | – | –
Cc1c(N2C(=O)N(CCCOc3ccc(-c4ccncc4F)cc3)C(C)(C)C2=O)ccc(C#N)c1Cl [EM-9311] | – | – | – | 119 ± 8 (n = 2) % | 24 ± 3 (n = 2) % | 39 ± 1 (n = 2) % | – | 89.0% | – | > 100 nM | – | – | – | –
Cc1c(N2C(=O)N(CCCOc3ccc(-c4cc[n+]([O-])cc4Cl)cc3)C(C)(C)C2=O)ccc(C#N)c1Cl [EM-9313] | – | – | – | 88 ± 2 (n = 2) % | 14 ± 9 (n = 2) % | 36 ± 2 (n = 2) % | – | 34.1% | – | > 100 nM | – | – | – | –
Cc1c(N2C(=O)N(CCCOc3ccc(-c4cc[n+]([O-])cc4F)cc3)C(C)(C)C2=O)ccc(C#N)c1Cl [EM-9318] | – | 46.1% | – | 92 ± 27 (n = 2) % | 14 ± 9 (n = 2) % | 42 ± 3 (n = 2) % | – | – | – | 100 nM | – | – | – | –
Cc1c(N2C(=O)N(CCCOc3ccc(-c4cc[n+]([O-])cc4)cc3C(F)(F)F)C(C)(C)C2=O)ccc(C#N)c1Cl [EM-9319] | – | – | – | 110 ± 10 (n = 2) % | 17 ± 10 (n = 2) % | 39 ± 2 (n = 2) % | – | 9.6% | – | 97.8 nM | – | – | – | –
Cc1c(N2C(=O)N(CCCOc3ccc(-c4ccncc4)c(C(F)(F)F)c3)C(C)(C)C2=O)ccc(C#N)c1Cl [EM-9333] | – | – | – | 93 ± 23 (n = 2) % | 19 ± 5 (n = 2) % | 38 ± 2 (n = 2) % | – | 64.1% | – | 73 nM | – | – | – | –
Cc1c(N2C(=O)N(CCCOc3ccc(-c4cc[n+]([O-])cc4)c(C(F)(F)F)c3)C(C)(C)C2=O)ccc(C#N)c1Cl [EM-9334] | – | – | – | 86% | 17% | 30% | – | 17.8% | – | 28.9 nM | – | – | – | –
